According to patent US11376246B2, “Inhibiting mutant IDH-1” (FORMA Therapeutics, Inc., priority 2018, dated 2022):

Columns and labels:
[1] = Literature reported data; cited from earlier work
[2] = Dynamic vapor sorption (DVS); assay type: physicochemical; settings: 25° C./90% RH

C[C@@H](Nc1nc(N[C@H](C)C(F)(F)F)nc(-c2cccc(Cl)n2)n1)C(F)(F)F [AG-881]
BBB+ [1]: Yes

C[C@H](Nc1ccc(C#N)n(C)c1=O)c1cc2cc(Cl)ccc2[nH]c1=O [Compound 1 Type A, (S)-5-((1-(6-chloro-2-oxo-1,2-dihydroquinolin-3-yl)ethyl)amino)-1-methyl-6-oxo-1,6-dihydropyridine-2-carbonitrile]
maximum water uptake (DVS) [2]: 0.25 % w/w

Cc1cc([C@H](C)Nc2nccc(N3C(=O)OC[C@@H]3C(C)C)n2)ncc1-c1ccnc(C(F)(F)F)c1 [IDH305]
BBB+ [1]: Yes
